Data reported in publication PMC6628920 (Chemico-biological interactions, 2018).

Tests used:
[1] = molecular target: T1, recombinant UGT1A1 (Homo sapiens, UniProt P22309); test: Chemical inhibition of cycloicaritin-3-O-glucuronidation by recombinant UGT1A1; format: biochemical; conditions: cycloicaritin 8 μM
T1 sequence (P22309 26-533): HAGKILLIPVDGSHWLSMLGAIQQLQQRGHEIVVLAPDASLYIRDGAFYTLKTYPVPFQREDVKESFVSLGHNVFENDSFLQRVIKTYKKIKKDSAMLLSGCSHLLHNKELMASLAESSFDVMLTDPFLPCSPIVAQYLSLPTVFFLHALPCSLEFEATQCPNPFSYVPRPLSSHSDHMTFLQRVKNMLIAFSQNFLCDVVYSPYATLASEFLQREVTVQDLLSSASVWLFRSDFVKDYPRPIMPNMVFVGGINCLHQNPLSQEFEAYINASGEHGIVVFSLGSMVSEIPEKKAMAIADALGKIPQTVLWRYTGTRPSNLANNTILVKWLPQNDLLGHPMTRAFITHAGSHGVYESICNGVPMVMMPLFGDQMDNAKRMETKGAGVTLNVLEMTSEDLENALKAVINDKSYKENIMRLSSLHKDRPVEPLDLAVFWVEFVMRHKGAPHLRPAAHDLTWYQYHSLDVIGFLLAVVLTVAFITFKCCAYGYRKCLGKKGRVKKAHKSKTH

[2] = molecular target: T2, HeLa1A1 cell lysate (Homo sapiens, UniProt P22309); test: Chemical inhibition of cycloicaritin-3-O-glucuronidation by HeLa1A1 cell lysate; format: biochemical; conditions: cycloicaritin 8 μM
T2 sequence (P22309 26-533): T1 sequence (P22309 26-533)

[3] = cited from earlier work
[4] = cited from earlier work; remark: listed apart in the source
[5] = molecular target: MRP1 (Homo sapiens, UniProt P33527); format: in vitro ADME
[6] = molecular target: T3, MRP4 (Homo sapiens, UniProt O15439); format: in vitro ADME
T3 sequence (O15439 1-1325): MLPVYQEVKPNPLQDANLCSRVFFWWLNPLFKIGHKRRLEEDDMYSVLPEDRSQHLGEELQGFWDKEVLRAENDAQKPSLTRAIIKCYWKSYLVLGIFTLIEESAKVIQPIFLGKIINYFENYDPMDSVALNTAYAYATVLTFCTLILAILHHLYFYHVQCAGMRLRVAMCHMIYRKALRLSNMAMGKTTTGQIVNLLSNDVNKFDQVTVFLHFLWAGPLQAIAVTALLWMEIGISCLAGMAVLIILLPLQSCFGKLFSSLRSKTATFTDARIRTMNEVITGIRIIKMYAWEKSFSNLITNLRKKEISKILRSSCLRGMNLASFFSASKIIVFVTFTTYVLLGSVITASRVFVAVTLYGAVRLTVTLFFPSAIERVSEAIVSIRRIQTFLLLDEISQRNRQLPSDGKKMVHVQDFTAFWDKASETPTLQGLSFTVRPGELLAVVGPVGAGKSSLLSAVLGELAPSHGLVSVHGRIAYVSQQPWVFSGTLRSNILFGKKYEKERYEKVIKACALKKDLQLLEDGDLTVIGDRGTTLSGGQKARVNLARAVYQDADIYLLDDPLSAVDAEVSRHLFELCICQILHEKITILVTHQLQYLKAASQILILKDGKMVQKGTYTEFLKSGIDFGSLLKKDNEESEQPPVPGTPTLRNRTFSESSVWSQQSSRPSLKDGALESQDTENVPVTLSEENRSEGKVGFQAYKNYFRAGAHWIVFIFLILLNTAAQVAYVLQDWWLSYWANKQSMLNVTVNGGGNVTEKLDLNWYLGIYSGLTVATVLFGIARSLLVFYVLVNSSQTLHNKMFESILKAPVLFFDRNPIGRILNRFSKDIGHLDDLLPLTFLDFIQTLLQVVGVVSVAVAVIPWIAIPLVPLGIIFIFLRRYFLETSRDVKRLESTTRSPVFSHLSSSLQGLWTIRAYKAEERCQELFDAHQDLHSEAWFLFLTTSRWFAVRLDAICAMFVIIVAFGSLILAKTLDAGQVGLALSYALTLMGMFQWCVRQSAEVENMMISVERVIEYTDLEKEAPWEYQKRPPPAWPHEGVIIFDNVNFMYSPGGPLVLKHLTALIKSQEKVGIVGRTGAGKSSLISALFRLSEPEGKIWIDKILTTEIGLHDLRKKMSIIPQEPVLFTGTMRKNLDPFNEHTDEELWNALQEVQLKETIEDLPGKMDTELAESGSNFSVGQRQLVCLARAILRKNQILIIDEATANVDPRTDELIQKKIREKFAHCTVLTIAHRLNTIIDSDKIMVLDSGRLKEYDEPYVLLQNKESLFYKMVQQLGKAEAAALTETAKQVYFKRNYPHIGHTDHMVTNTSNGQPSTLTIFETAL

[7] = test system: MRPs; test: Effects of MRPs inhibitors on excretion of CICT-3-G in HeLa1A1 cells; format: cell-based, human; conditions: inhibitor 0.05 and 0.2 μM, cycloicaritin 8 μM
[8] = molecular target: T1, recombinant UGT1A1; test: Kinetics of cycloicaritin-3-O-glucuronidation by recombinant UGT1A1; format: in vitro ADME; conditions: Hill equation
[9] = molecular target: T2, HeLa1A1 cell lysate; test: Kinetics of cycloicaritin-3-O-glucuronidation by HeLa1A1 cell lysate; format: in vitro ADME; conditions: Hill equation
[10] = Metabolite formation from cycloicaritin by wild-type HeLa cell lysate; format: in vitro ADME, human; conditions: cycloicaritin 8 μM, 2 h

Chain of MRP1 (P33527 whole entry): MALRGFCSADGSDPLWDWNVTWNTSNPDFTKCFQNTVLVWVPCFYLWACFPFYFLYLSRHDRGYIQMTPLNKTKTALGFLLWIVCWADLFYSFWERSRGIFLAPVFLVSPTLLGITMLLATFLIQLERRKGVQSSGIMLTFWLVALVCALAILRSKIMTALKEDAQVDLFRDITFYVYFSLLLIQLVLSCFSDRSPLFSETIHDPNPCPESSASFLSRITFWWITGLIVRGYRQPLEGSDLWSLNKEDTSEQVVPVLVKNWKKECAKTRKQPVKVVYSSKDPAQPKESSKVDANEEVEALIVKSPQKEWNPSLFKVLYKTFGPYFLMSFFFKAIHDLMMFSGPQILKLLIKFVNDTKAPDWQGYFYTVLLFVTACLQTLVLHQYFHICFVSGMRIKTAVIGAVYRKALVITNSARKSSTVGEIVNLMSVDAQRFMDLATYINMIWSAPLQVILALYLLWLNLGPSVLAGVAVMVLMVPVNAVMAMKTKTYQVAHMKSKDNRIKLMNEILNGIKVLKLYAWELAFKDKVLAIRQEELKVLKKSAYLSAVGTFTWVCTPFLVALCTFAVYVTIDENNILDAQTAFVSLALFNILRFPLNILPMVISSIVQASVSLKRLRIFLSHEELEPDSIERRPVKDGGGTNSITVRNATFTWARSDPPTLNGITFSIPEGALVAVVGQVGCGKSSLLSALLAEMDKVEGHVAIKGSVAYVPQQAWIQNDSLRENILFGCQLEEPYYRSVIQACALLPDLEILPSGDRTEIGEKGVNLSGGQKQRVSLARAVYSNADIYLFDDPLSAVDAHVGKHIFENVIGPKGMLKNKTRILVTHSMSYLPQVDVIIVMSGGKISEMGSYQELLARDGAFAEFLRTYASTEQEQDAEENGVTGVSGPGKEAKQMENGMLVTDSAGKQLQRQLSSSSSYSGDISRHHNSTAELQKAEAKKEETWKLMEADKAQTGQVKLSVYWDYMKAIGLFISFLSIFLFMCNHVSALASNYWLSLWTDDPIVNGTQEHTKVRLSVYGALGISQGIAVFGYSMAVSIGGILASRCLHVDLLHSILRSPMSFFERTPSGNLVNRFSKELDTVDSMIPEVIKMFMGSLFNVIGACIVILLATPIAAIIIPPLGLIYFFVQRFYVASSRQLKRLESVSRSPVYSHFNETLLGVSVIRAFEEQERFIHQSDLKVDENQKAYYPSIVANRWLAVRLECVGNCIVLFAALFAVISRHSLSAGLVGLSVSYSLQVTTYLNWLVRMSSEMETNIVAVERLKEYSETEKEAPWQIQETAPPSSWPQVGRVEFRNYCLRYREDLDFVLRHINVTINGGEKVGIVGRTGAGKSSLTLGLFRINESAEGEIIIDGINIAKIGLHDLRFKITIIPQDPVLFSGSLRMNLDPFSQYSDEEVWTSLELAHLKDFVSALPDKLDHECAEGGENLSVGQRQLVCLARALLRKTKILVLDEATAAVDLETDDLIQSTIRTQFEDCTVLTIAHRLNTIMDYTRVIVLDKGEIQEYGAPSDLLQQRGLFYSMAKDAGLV

In the case of COc1ccc2c3c([nH]c2c1)[C@H](CC(C)C)N1C(=O)[C@H](CCC(=O)OC(C)(C)C)NC(=O)[C@@H]1C3 [Ko143], the “remaining cycloicaritin-3-O-glucuronidation activity, % of the control values” ([1]; inhibitor 20 μM) is reported as 12.5% and the “remaining cycloicaritin-3-O-glucuronidation activity, % of the control values” ([2]; inhibitor 20 μM) is reported as 8.8%.

In the case of COc1ccc(-c2oc3c(CC=C(C)C)c(O)cc(O)c3c(=O)c2O)cc1 [icaritin], the “CLint of glucuronidation in human liver” value [3] is listed as > 350 µL/min/mg and the “CLint of glucuronidation in human intestine” value [4] is listed as > 180 µL/min/mg.

In the case of COc1ccc(-c2oc3c4c(cc(O)c3c(=O)c2O[C@@H]2O[C@H](C(=O)O)[C@@H](O)[C@H](O)[C@H]2O)OC(C)(C)CC4)cc1 [CICT-3-G, cycloicaritin-3-O-glucuronide], the “decrease of the efflux clearance of CICT-3-G” value [5] is reported as 52.0% and the “decrease in the efflux clearance of CICT-3-G” value [6] is reported as 28.7%.

In the case of CCCCC/C=C\C\C=C/C=C/C=C/[C@@H](SC[C@H](NC(=O)CC[C@H](N)C(=O)O)C(=O)NCC(=O)O)[C@@H](O)CCCC(=O)O [LTC4, leukotriene C4], the “effect on cycloicaritin-3-O-glucuronidation activity” value ([1]; inhibitor 0.05 and 0.2 μM) is reported as “did not alter”, the “effect on cycloicaritin-3-O-glucuronidation activity” value ([2]; inhibitor 0.05 and 0.2 μM) is reported as “did not alter” and the “effect on CLapp value of CICT-3-G” value [7] is reported as “no significant changes”. The “effect on fmet value of CICT-3-G” value [7] was “no significant changes”, the “effect on the intracellular level of CICT-3-G” value [7] was “did not alter” and the “effect on the rate of efflux excretion of CICT-3-G” value [7] was “did not alter”.

With COc1ccc(-c2oc3c4c(cc(O)c3c(=O)c2O)OC(C)(C)CC4)cc1 [cycloicaritin, Cycloicaritin] the “CLmax of cycloicaritin-3-O-glucuronidation” value [8] was 190 µL/min/mg, the “S50 of cycloicaritin-3-O-glucuronidation” value [8] was 1.43 µM and the “n (Hill coefficient) of cycloicaritin-3-O-glucuronidation” value [8] was 1.67 µM. For the same molecule, the “Vmax of cycloicaritin-3-O-glucuronidation” value ([8]; cycloicaritin 0.1-10 μM) was 0.54 nmol/min/mg, the “CLmax of cycloicaritin-3-O-glucuronidation” value [9] was 17 µL/min/mg and the “S50 of cycloicaritin-3-O-glucuronidation” value [9] was 1.19 µM. For the same molecule, the “n (Hill coefficient) of cycloicaritin-3-O-glucuronidation” value [9] was 1.71 µM, the “Vmax of cycloicaritin-3-O-glucuronidation” value ([9]; cycloicaritin 0.1-10 μM) was 0.04 nmol/min/mg and the “metabolites detected after incubation with cell lysate” value [10] was “no metabolites were detected”.

For COc1ccc(-c2oc3c(CCC(C)(C)O)c(O)cc(O)c3c(=O)c2O)cc1 [wushanicaritin], the “CLint of glucuronidation in human liver” value [3] is given as > 350 µL/min/mg and the “CLint of glucuronidation in human intestine” value [4] is given as > 180 µL/min/mg.
